# Patent US20240294478A1, “ANTI-CANCER COMPOUNDS AND METHODS OF USE” (YALE UNIVERSITY, priority 2021, published 2024)
# Read-outs that look alike come from different tables or passages of the source.
# Tests used:
# [1] = system: linearized pUC19 plasmid DNA; assay: Melting temperature assay; format: biochemical; conditions: 100 or 500 μM for 3 h
# Method: Columns, mean; error bars, SD; n=2 independent analyses. For (A) and (C), points, mean; error bars, SD; n=3 technical replicates.
# Melting Temperature Assay. Linearized pUC19 DNA (750 ng), prepared as described above, was incubated with the indicated concentration of either MMS or KL-50 adjusted in a final volume of 18 μL in 100 mM Tris buffer (pH 7.4) for 3 h. Drug stock concentrations were made in DMSO such that each reaction contained a fixed 5% DMSO concentration. Afterwards, 1 μL each of 20×SYBR Green dye (Invitrogen) and 20×ROX reference dye (Invitrogen) was added and melting temperature analysis was run on a StepOnePlus RT PCR System (Applied Biosciences) to generate melting temperature curves.
# LN229 MGMT+/MMR+ cells = assay: Short-term cell viability assay, LN229 MGMT+/MMR+; format: cell-based; conditions: Homo sapiens, read-out: IC50 against LN229 cell lines, MGMT+ MMR+
# Method: LN229 MGMT- and MGMT+ cell lines were a gift from B. Kaina (Johannes Gutenberg University Mainz, Mainz, Germany) and grown in Gibco® Duilbecco's Modified Eagle Medium with 10% fetal bovine serum (DMEM). For each compound tested, the relationship between MGMT status and MMR status and compound activity, in terms of IC50 values ([…]), was determined by the following method. On day 1, LN229 isogenic cells of varying MGMT and MMR status were seeded in 96 well format at a density of 2000 cells/well in 100 μL of DMEM media and allowed to adhere overnight. On day 2, a drug master plate was made with 100×the desired maximal concentration of test compound and serially diluted by 2 until 100×the minimal desired concentration, with one DMSO control. Then daughter plates were created with varied concentrations from 3-times the minimal concentration to 3-times the maximal desired concentration. Afterwards, 50 μL of daughter drug plate was added to 100 μL of the seeded cells for a final concentration of 1×in triplicate. Cells were allowed to grow for 6 days. On day 7, the cells were fixed, and stained with Hoechst nuclear dye and imaged to determine growth inhibition.
# For each compound tested, the relationship between MGMT status and MMR status and compound activity, in terms of IC50 values (in μM), was determined. In addition, for each compound, the therapeutic index (TI) was calculated, according to the equation MGMT TI=IC50 (MGMT+/MMR+) divided by IC50 (MGMT−/MMR+). The T1 indicates the efficacy of a compound in treating the targeted MGMT-cancer cells as compared to potential for the same compound to damage, or have adverse effects against, normal cells which are MGMT+cells, The higher the value of the TI, the safer the compound is. […] MMR RI (resistance index)=IC50 (MGMT−/MMR−) divided by IC50 (MGMT−/MMR+). The higher the value of the RI, the less likely that resistance to the compound will develop.
# Short-term Cell Viability Assay. Cells were seeded in 96-well plates at 1000 or 2000 cells/well and allowed to adhere at 23° C. for 60 min and then incubated overnight at 37° C. Cells were treated with indicated concentrations of compounds in triplicate for 4-6 days prior to fixation with 3.7% paraformaldehyde and nuclear staining with 1 μg/mL Hoechst 33342 dye. Cells were imaged on a Cytation 3 imaging reader (BioTek) and quantified using CellProfiler software. For in vitro short-term growth delay experiments, IC50 values were determined from the nonlinear regression equation, [inhibitor] vs normalized response with variable slope.
# [2] = system: large MGMT−/MMR+ and MGMT−/MSH6− LN229 flank tumors; assay: Flank tumor third study: large tumors; format: in vivo, mouse; conditions: 25 mg/kg PO MWF x 3 weeks
# Excerpt: FIGS. 9A-91: KL-50 is safe and efficacious on both MGMT−/MMR+ and MGMT−/MMR-flank tumors over a wide range of treatment regimens and conditions. […] (FIG. 9C) Mean body weight of mice during LN229 flank tumor experiments. (FIG. 9D) Kaplan-Meier analysis of LN229 MGMT−/MMR− xenograft flank tumor-bearing mice to determine survival rate based on death, removal from study if mouse body weight loss exceeded 20% of initial body weight, or if tumor volume exceeded 2000 mm^3. […] (FIGS. 9H-91) Xenograft LN229 MGMT−/MMR+ and LN229 MGMT−/MSH6—flank tumors with a larger average starting tumor size of −400 mm^3 and −350 mm^3 respectively, treated with 3 weekly cycles of P.O administration of 10% cyclodextrin (n=4) or KL-50 (n=4, 3 cycles of 25 mg/kg on Monday, Wednesday, and Friday). The study period was limited by control groups which had to be euthanized for exceeding the ethical maximum allowed tumor size, thus ending the study. In all panels, points, mean; error bars, SEM; *, P<0.05; **, P<0.01; ***, P<0.001; ****, P<0.0001; ns, not significant.
# The third study involved MGMT−/MMR+ and MGMT−/MSH6—(shMSH6) LN229 cells. Mice tumors were allowed to grow to a larger average starting volume of −350 mm^3 before they were randomized and administered either KL-50 (25 mg/kg MWF×3 weeks) or vehicle (10% cyclodextrin) by oral gavage. […]
smiles,measurement,setting,value
NC(=O)c1ncn2c(=O)n(CCF)nnc12 [KL-50],change in DNA melting temperature,[1],comparable changes in measured DNA melting temperature
same,IC50,"LN229 MGMT+/MMR+ cells; LN-229, Table III, shRNA None",285 ± 46 µM
same,IC50,"LN229 MGMT+/MMR+ cells; LN-229, Table II",587 ± 166 µM
same,growth of large (350-400 mm^3) tumors,[2],potently suppressed the growth
"Cn1nnc2c(C(N)=O)ncn2c1=O [TMZ, 4-methyl-5-oxo-2,3,4,6,8-pentazabicyclo[4.3.0]nona-2,7,9-triene-9-carboxamide, reference compound]",IC50,"LN229 MGMT+/MMR+ cells; LN-229, 144 h, Table 1, 6 days growth, Hoechst nuclear count",> 100 µM
same,IC50,"LN229 MGMT+/MMR+ cells; LN-229, Table III, shRNA None",697 ± 60 µM
same,IC50,"LN229 MGMT+/MMR+ cells; LN-229, Table II",742 ± 468 µM
